target: T1, EGT (Autographa californica nuclear polyhedrosis virus, UniProt P18569); format: biochemical; details: substrate 1 mM; extracellular medium from wt-AcMNPV infected cells; 0.05 μCi UDP-[U-14C]glucose
T1 construct: extracellular medium from wt-AcMNPV infected cells containing significant egt activity; endogenous in cells; host or cells: Spodoptera frugiperda IPLB-SF-21 (SF) cells infected with wild-type AcMNPV; extracellular medium used unpurified; EGT made from the virus's own gene
Method: Experiments are then performed to more thoroughly investigate the substrate specificity of EGT. In these experiments various substrates (1 mM) are incubated in the presence of extracellular medium from wt-AcMNPV infected cells containing significant egt activity. As controls to ensure that any conjugation observed is due to EGT, each substrate is also incubated with media from uninfected and vEGTZ-infected cells, which cannot produce EGT. 0.05 μCi UDP-[U-^14 C]glucose are added to each reaction. Any compounds which function as substrates for EGT will be conjugated with glucose; they can be detected because the glucose is radioactively labeled.
Substrates are incubated in the presence of medium derived from
appropriately infected cells and 0.05 μCi UDP[U-^14 C]glucose.
Amounts of glucose transferred are calculated after scintillation countin
of the appropriate regions of the chromatography plates.
The only substrates identified are ecdysone, 20-hydroxyecdysone and makisterone A, all of which are ecdysteriods. No conjugation is observed using medium from mock- or vEGTZ-infected cells, confirming that the activity observed is due to expression of egt.

T1 sequence (P18569 19-506): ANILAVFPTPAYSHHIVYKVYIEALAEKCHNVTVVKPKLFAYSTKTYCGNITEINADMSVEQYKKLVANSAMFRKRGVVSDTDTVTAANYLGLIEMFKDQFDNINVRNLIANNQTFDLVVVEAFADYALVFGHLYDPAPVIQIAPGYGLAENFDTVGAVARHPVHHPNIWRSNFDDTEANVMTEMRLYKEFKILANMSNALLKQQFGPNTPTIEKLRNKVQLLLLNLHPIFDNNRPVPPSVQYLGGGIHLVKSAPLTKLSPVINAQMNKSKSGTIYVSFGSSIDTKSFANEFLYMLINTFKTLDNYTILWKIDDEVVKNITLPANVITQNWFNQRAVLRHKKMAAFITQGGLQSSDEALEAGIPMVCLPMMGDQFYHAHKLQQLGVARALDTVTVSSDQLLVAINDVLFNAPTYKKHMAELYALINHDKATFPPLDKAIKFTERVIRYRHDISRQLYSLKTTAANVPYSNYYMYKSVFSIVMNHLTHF

First: CC(C)(O)CCC(O)C(C)(O)C1CCC2(O)C3=CC(=O)C4CC(O)C(O)CC4(C)C3CCC12C (stereo not drawn) [20-Hydroxyecdysone]
Second: CC(CC(O)C(C)(O)C1CCC2(O)C3=CC(=O)C4CC(O)C(O)CC4(C)C3CCC12C)C(C)(C)O (stereo not drawn) [Makisterone A]
The “wild type (pmol Glucose transferred)” value of the first is lower: 87.8 pmol for the first, 89.6 pmol for the second.

With C[C@H]([C@H](O)CCC(C)(C)O)[C@H]1CC[C@@]2(O)C3=CC(=O)[C@@H]4C[C@@H](O)[C@@H](O)C[C@]4(C)[C@H]3CC[C@]12C [Ecdysone] the “wild type (pmol Glucose transferred)” value was 155.7 pmol.
